Measured values reported in a melting point compilation (Tetko et al.; mined from patent text by program, amines drawn as free bases though some values may be those of a salt).

Structure (SMILES) | melting point [°C]
CCn1cnc2c(Nc3cccc(Cl)c3)nc(Cl)nc21 | 127 to 128
CC(=O)C(=NNc1ccccc1)C(N)=O | 146 to 147
O=C1NC(c2ccccc2)C2=C1N=C1N=CNN1C2 (stereo not given) | 262 to 264
CCCCCCCCCNC1=CC(=O)c2c(OC)ccc(OC)c2C1=O | 85 to 86
CC(C)(C)OC(=O)N1CCC(C(=O)N2CCC(c3[nH]nc4c3C(=O)c3c(NC(=O)NN5CCOCC5)cccc3-4)CC2)CC1 | 220 to 222
Cc1noc(NC(=O)N2CCN(c3cc(-c4ccc(F)cc4)ncn3)CC2)c1C | 207 to 208
Cc1nc2c(n1C1CC1)CCCC2=O | 132
COc1ccc(NC(=O)c2ccc([N+](=O)[O-])c(OC)c2)cc1 | 168 to 169
COc1cc(OC)cc(-c2cc(NC(=O)CC(=O)C(F)(F)F)[nH]n2)c1 | 119 to 121
OCC1OC(n2ncc3c(SCC=Cc4ccccc4)ncnc32)C(O)C1O (stereo not given) | 165 to 166
C[C@@H](Cn1ncc2ccc(OCCO)c(Br)c21)NC(=O)OCc1ccccc1 | 97 to 99
N#Cc1cccn(-c2cccnc2Cl)c1=O | 145
Cc1cc(C(O)(C(F)(F)F)C(F)(F)F)cc(C)c1OCC(=O)NCc1ccccc1 | 142 to 144
COc1ccc(C(C)(C)C)cc1NC(=O)Nc1ccc(-c2cnc3c(c2)NC(=O)CN3)c2ccccc12 | > 230
CCCN(C)c1nc(N)nc2c1ncn2C1CC(F)C(CO)O1 (stereo not given) | 80 to 84
COC=C(C(=O)OC)c1c(OC)ncnc1Oc1cccc(C)c1 | 107
CC(=O)N1CCN=C1Nc1cc(C)nn1-c1cccc2ccccc12 | 194 to 195
CC(=O)Cn1c(=O)n(C2CCN(CCCC(c3ccc(F)cc3)c3ccc(F)cc3)CC2)c2ccc(Cl)cc21 | 175
CC(C)[C@H](NC(=O)OCc1ccccc1)C(=O)N(CC(=O)O)Cc1ccccc1 | 41 to 45
OCc1cnn(-c2ccccc2)c1-c1ccccc1 | 147 to 148
OCc1ccc(C2CCCc3cncn32)cc1 (stereo not given) | 142 to 145
Cc1cc(SCc2ccc(OCc3ccc(C(F)(F)F)cc3)cc2)c2c(c1OCC(=O)O)CCC2 | 165 to 167
CCOC(=O)C1=CCCCC1S(=O)(=O)Nn1c(Br)ccc1Br (stereo not given) | 123 to 124
Cc1ccc(S(=O)(=O)N(Cc2ccc(C#N)cc2F)C2CCCC2)cc1 | 178 to 179
CCCNC(=O)C(C#N)=C(SC)SC | 65 to 66
O=C1NC(N2CCCCCC2)=N/C1=C\c1c[nH]c2ncc(Cl)cc12 | 310 to 320
CC(=O)NC[C@H]1CN(c2ccc3c(c2)CSCC3)C(=O)O1 | 139 to 140

Structure (SMILES) | melting point [°C]
Cc1cc(OC(F)F)ccc1C(=O)O | 117 to 119
CCn1cc(C(=O)O)c(=O)c2cc(F)c(N3CCNC(c4ccc(Cl)s4)C3)cc21 (stereo not given) | 232 to 234
CCCCc1c(/C=C/C(=O)O)ccc2cc(OC)ccc12 | 163 to 164
CC(C)N1CC2CC(C1)CN(C(C)(O)c1ccc(F)cc1)C2 (stereo not given) | 53 to 54
NC(=S)N1CCC(=O)C(C(c2ccccc2)c2ccccc2)C1 (stereo not given) | 107
COC(=O)c1cc(O)n(C(C)C)n1 | 162 to 163
CCCCC(=N)NC(=S)Nc1ccc(Cl)cc1 | 164 to 166
Cc1ccc(C(=O)OCCOC(=O)NC2(C(=O)O)CC2)cc1 | 178 to 182
CC(=O)Oc1ccc(NC(=O)c2ccc(C3OCC(SC(C)C(O)(Cn4cncn4)c4ccc(F)cc4F)CO3)cc2)cc1 (stereo not given) | 127
Nc1nc(N)nc(N2CCSCC2)n1 | 237 to 239
O=[N+]([O-])c1cccnc1N=C=S | 115 to 118
COc1ccc(NC(=O)NCCCl)cc1OC | 117
CC#CCOc1cc2c(cc1CCC)OCO2 | 39 to 40
O=C(Cc1ccccc1)NC1C(=O)N2C1SC1(CCN(Cc3ccccc3)CC1)C2C(=O)OCc1ccccc1 (stereo not given) | 130 to 131
O=c1[nH][nH]c(=O)c2nc3ccccc3cc12 | 345 to 349
O=C(c1ccccc1)C1OC1c1ccccc1Cl (stereo not given) | 132
CCOc1ccccc1C(=N)N | 78 to 84
O=C(O)c1ccc(OCC2COC(=O)N2c2ccc(Cl)cc2)cc1 (stereo not given) | 219 to 221
CC(=O)c1ccc(CNC(=O)c2cccnc2Oc2cccnc2)s1 | 201 to 203
CCc1[nH]n(C2CCCC2)c2nc(=S)[nH]c(=O)c1-2 | 248 to 250
OC1CC2(CCCC2)Oc2ccc(Br)cc21 (stereo not given) | 123 to 124
C#CCN1C(=O)c2cccc3c2N(CC3)c2ccccc21 | 104 to 105
NCC1CCN(c2c(F)cc3c(=O)c(C(=O)O)cn(C4CC4)c3c2F)C1 (stereo not given) | 232 to 235
COC(=O)C1CCC2C3CCC4CC(OS(=O)(=O)c5ccc(C)cc5)CCC4(C)C3C(=O)CC12C (stereo not given) | 158 to 160
CCCc1ccc(S(=O)(=O)NN2CCN(C)CC2)cc1 | 153 to 154
N#CN=C(Nc1cccnc1)NC(NC(=O)c1ccc(I)cc1)C(Cl)(Cl)Cl (stereo not given) | 208 to 210
O=Cc1ccc(Cl)c(-c2ccccc2)c1 | 84

Structure (SMILES) | melting point [°C]
O=C(O)CCCCCCc1cnc2ccccc2c1 | 120 to 121
COc1ccc2cc3c(c(-c4ccc5c(c4)OCO5)c2c1OC)C(=O)NC3=O | 274 to 276
CC(C)N(c1cccc2cc(-c3ncc(CCl)s3)[nH]c12)S(=O)(=O)c1cccs1 | 184 to 185
Cc1cnc(Sc2nc(C)c(CC(=O)O)s2)c(C(=O)O)c1 | 229 to 231
CCN(CC)CC1(C)Cc2c(C)c(N3CCN(c4ccc(OC)cc4)CC3)c(C)c(C)c2O1 (stereo not given) | 103 to 106
Cc1ccc(OS(=O)(=O)c2ccc(N3CCN(C)C3=O)cc2)cc1 | 155 to 157
COC(=O)C=Cc1cccc2c3c(n(C)c12)CCN(Cc1nc[nH]c1C)C3=O | 175 to 178
CS(=O)(=O)Oc1ccc(=O)[nH]n1 | 148
CCOC(=O)C(=O)CC(=O)c1cn(Cc2ccc(F)cc2)c2c(F)cccc2c1=O | 179 to 180
N#CC(C(=O)Nc1cccnc1)C(=O)c1nn(-c2ccccc2)c2c1COc1ccccc1-2 (stereo not given) | 280 to 282
CC(C)NC(=O)c1ccc(N2CCC(N3C(=O)OCc4ccccc43)CC2)c(C#N)c1 | 200
FC(F)(F)c1cnc(CNC(=S)c2ccccc2Cl)c(Cl)c1 | 102 to 103
COc1ccc2c(c1)NC(=O)C(Cl)(Cl)CC2 | 148 to 150
Cc1ccc(C(C)(C)C)c(O)c1-c1nc2cc(C#N)ccc2[nH]1 | 212 to 215
O=C1OC(=O)c2c(Cl)c(Sc3ccccc3)c(Sc3ccccc3)c(Cl)c21 | 204 to 207
O=CCCc1cnc(-c2ccccc2)s1 | 192
CC(C)C(C(=O)O)N1CCCNC1=O (stereo not given) | 176 to 177
Cc1ccc(C(c2ccc(C)cc2)(c2ccc(C)cc2)c2ccc(C#N)cc2)cc1 | 207 to 209
Cc1ccc(Oc2c(F)cc(C(F)(F)F)cc2Cl)cc1[N+](=O)[O-] | 113 to 115
CC12CCC3C(CC(O)C4(O)CC=CCC34C)C1CCC2=O (stereo not given) | 183 to 186
O=C(O)CCC(=O)C(=O)Nc1ccccc1 | 192 to 193
CCCOc1ccc(N2CCCn3c2nc2c(Cl)ccc(C(OC(F)F)C(F)(F)F)c23)c(C)n1 (stereo not given) | 156 to 158
N#Cc1ccc(C(=O)CNc2ccc(I)cc2)cc1 | 160 to 165
C=CCOC(=O)c1ccc(NC(C)=O)cc1O | 156 to 158
O=C(O)c1cn(-c2cnsn2)c2nc(N3CCCC3)c(F)cc2c1=O | 269 to 273
COc1ccc(-n2cc(-c3cccc(C(=O)O)n3)cn2)cc1 | 122 to 123
CC1=C(C(=O)OC(C)(C)C)C(c2cccc(F)c2F)C(C(=O)OC(C)(C)C)=C(C)N1 | 192 to 194

Structure (SMILES) | melting point [°C]
COc1cc(/C=C/CNc2cccc(-c3ccnc4c(C(=O)c5cccs5)cnn34)c2)ccc1O | 180 to 184
CCNC(=S)Nc1cc(F)ccc1C | 93 to 95
O=S(=O)(O)CCCCN1CCN(C(c2ccc(F)cc2)c2ccccn2)CC1 (stereo not given) | 231 to 232
C#Cc1cccc(Nc2ncnc3cnc(NCc4ccc(OC)cc4)cc23)c1 | 200 to 203
OCc1cccc2c(Br)c3ccccc3cc12 | 125 to 127
C=CCCCCCCCCC(=O)N1CC[C@H]2[C@H]1[C@@H](CCC)C(=O)N2S(C)(=O)=O (relative stereo) | 62 to 64.6
COc1cc2c(c3c1OC(C)(C)C3)C(c1ccc(=O)[nH]c1)=NC(C)(C)C2 | 195 to 196
Cc1cc(O)c(C(C)(C)C)cc1C=O | 168 to 170
CCc1cccc2c(C(N)CO)c[nH]c12 (stereo not given) | 84 to 86
O=C(NNS(=O)(=O)c1ccc([N+](=O)[O-])cc1)c1ccccc1 | 193 to 195
CC(C#N)NNC(N)=O (stereo not given) | 125 to 128
CCCOc1ccc(S(=O)(=O)N2CCN(CCOC(=O)C(C)C)CC2)cc1-c1nc2c(CCC)cn(CC)c2c(=O)[nH]1 | 88 to 89
c1ccc2c(c1)CC1(CCNCC1)O2 | 56 to 58.5
OCc1nnc2n1-c1sc(Cl)cc1C(c1ccccc1Cl)=NC2 | 219 to 221
COc1ccc(C2SCC(C(=O)O)N2C(=O)OC(C)(C)C)cc1 (stereo not given) | 160 to 162
O=C(NCCC1CCCCC1)c1c(Cl)ccc2nc(N3CCC(C(=O)O)CC3)ccc12 | 253 to 256
CC(C)=CCNc1ncnc2nc(N(C)C)[nH]c12 | 246 to 249
Nc1cc(C(=O)NCC(=O)O)ccc1F | 150 to 152
CC(C)CC(NC(=O)OCc1ccccc1)C(=O)Nc1nncs1 (racemic) | 118 to 120
C#CC(Cn1ncnn1)n1nnc2cc3c(=O)n(C4CC4)nnc3cc2c1=O (stereo not given) | 224 to 225
Cc1cccc(C)c1CNc1cc(C(=O)N(C)C)nc2c(C)c(C)[nH]c12 | 315
COc1c2nc(CCl)n(C)c(=O)c2c(OC)c2nc(CCl)n(C)c(=O)c12 | 273 to 274
N#CC1Cc2ccc(Nc3ccncc3N)cc2C1 (stereo not given) | 98 to 100
CCCCc1nc(C(=O)O)c(C(=O)O)n1Cc1ccc(I)cc1 | 98 to 99
